Target: T1, human 11βHSD1 (Homo sapiens, UniProt P28845)
T1 construct: a construct containing full-length human 11βHSD1 enzyme (in pCMVHyg); expressed in transfected cells
Test: HeLa GRE4-βGal/11βHSD1 cell reporter assay (β-galactosidase production)
Type: cell-based
Settings: HeLa GRE4-βGal/11βHSD1 cells, cortisone 1 μM, overnight incubation, absorbance at 570 nm
Text: HeLa cells (human cervical carcinoma derived cells) were stably transfected with a construct containing four copies of the glucocorticoid response element (GRE) linked to a beta-galactosidase reporter gene (3 kb lac Z gene derived from pSV-B-galactosidase). These cells were then further stably transfected with a construct containing full-length human 11βHSD1 enzyme (in pCMVHyg) to create GRE4-βGal/11βHSD1 cells. The principal of the assay is as follows. Cortisone is freely taken up by the cells and is converted to cortisol by 11βHSD1 oxo-reductase activity and cortisol (but not cortisone) binds to and activates the glucocorticoid receptor. Activated glucocorticoid receptor then binds to the GRE and initiates transcription and translation of β-galactosidase. Enzyme activity can then be assayed with high sensitivity by colourimetric assay.
Cells were routinely cultured in DMIM (Invitrogen, Paisley, Renfrewshire, UK) containing 10% foetal calf serum (LabTech), 1% glutamine (Invitrogen), 1% penicillin & streptomycin (Invitrogen), 0.5 mg/ml G418 (Invitrogen) & 0.5 mg/ml hygromycin (Boehringer). Assay media was phenol red free-DMEM containing 1% glutamine, 1% penicillin & streptomycin.
Compounds (1 mM) to be tested were dissolved in dimethyl sulphoxide (DMSO) and serially diluted into assay media containing […]. […]
A cocktail (25 μl) consisting of 10× Z-buffer (600 mM Na2HPO4, 400 mM NaH2PO4.2H2O, 100 mM KCl, 10 mM MgSO4.7H2O, 500 mM, β-mercaptoethanol, pH 7.0), SDS (0.2%), chlorophenol red-β-D-galactopyranoside (5 mM, Roche Diagnostics) was added per well and plates incubated at 37° C. for 3-4 hours. β-Galactosidase activity was indicated by a yellow to red colour change (absorbance at 570 nm) measured using a Tecan Spectrafluor Ultra.
The calculation of median inhibitory concentration (IC50) values for the inhibitors was performed using Origin 6.0 (Microcal Software, Northampton M A USA). Dose response curves for each inhibitor were plotted as OD units at each inhibitor concentration with relation to a maximum signal (cortisone, no compound) and IC50 values calculated. […]

T1 sequence (P28845 whole entry): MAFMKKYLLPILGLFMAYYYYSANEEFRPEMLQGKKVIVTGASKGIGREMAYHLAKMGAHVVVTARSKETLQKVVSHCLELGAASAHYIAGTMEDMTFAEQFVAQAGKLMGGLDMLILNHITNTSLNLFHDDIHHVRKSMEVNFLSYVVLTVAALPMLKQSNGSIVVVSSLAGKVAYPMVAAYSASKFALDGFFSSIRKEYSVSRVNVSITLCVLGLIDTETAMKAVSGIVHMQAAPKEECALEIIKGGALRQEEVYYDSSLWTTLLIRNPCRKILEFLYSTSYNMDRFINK

IC50 [µM] | Structure (SMILES)
0.06 | CC(C)Oc1ccc(C(=O)CS(=O)(=O)N(C(C)C)C(C)C)cc1 [Example 75]
0.047 | CN(C)S(=O)(=O)CC(=O)c1cnccn1 [Example 14]
0.072 | CN(C)S(=O)(=O)CC(=O)c1ccccn1 [Example 2, (N,N-Dimethylsulphamoylmethyl)(pyrid-2-yl)ketone]

Reference: patent US20060058315A1, “2-Oxo-ethanesulfonamide derivates” (AstraZeneca AB, priority 2002, published 2006)
